Test results from ChEMBL document CHEMBL4359843, “Linear and Rationally Designed Stapled Peptides Abrogate TLR4 Pathway and Relieve Inflammatory Symptoms in Rheumatoid Arthritis Rat Model” (J Med Chem, 2019).
Calls of active or inactive are those of the source. The calls are words filed in the database; no cut-off is given here. Where a SMILES comes first, the peptide text is derived from it. Bridges are numbered along the chain shown (N, C = ends).

Columns and labels:
Toll-like receptor 4 [1] = biological target: T1, Toll-like receptor 4 (Homo sapiens, UniProt O00206); assay: Binding affinity to recombinant human TLR4 using phage displayed compound by Phage-ELISA
Rattus norvegicus [2] = assay: Antiarthritic activity in Lewis rat model of complete Freund's adjuvant-induced arthritis assessed as reduction in mean articular index score at 1 nmol/g administered intra-articularly into knee joint for 6 weeks and measured every week during compound dosing; format: functional, organism-based
[3] = biological target: T2, Toll-like receptor 4 (Mus musculus) (UniProt Q9QUK6); assay: Antagonist activity at TLR4 in mouse RAW264.7 cells assessed as reduction in LPS-induced TNFalpha secretion after 24 hrs by ELISA; format: cell-based
T2 sequence (whole entry): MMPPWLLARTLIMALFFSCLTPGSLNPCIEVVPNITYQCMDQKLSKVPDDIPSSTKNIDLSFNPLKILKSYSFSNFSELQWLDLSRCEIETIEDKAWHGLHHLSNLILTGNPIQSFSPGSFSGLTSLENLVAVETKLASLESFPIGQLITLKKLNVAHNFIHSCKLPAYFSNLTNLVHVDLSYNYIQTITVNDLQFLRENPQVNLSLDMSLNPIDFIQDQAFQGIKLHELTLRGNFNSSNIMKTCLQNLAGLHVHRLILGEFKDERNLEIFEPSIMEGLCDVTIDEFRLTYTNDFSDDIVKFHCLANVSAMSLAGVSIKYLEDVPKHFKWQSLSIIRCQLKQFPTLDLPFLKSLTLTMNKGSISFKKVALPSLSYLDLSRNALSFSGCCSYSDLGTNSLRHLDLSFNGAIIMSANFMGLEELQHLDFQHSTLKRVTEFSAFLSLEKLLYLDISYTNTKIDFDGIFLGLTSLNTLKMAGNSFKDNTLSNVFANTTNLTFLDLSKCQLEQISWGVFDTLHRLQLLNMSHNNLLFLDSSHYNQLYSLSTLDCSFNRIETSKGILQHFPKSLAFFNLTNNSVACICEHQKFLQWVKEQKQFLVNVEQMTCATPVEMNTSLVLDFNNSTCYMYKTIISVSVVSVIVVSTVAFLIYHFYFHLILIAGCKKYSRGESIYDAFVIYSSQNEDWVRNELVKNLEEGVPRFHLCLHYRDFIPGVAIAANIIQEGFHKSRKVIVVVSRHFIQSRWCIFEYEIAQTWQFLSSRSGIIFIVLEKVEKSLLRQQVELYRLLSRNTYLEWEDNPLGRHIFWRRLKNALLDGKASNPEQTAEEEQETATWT

[4] = biological target: T2, Toll-like receptor 4 (Mus musculus); assay: Antagonist activity at TLR4 in mouse RAW264.7 cells assessed as reduction in LPS-induced IL-6 secretion after 24 hrs by ELISA; format: cell-based
Toll-like receptor 4 [5] = biological target: T1, Toll-like receptor 4; assay: Antagonist activity at TLR4 in human THP1 cells assessed as reduction in LPS-induced IL6 secretion at 50 uM after 24 hrs by ELISA; format: cell-based
Toll-like receptor 4 [6] = biological target: T1, Toll-like receptor 4; assay: Antagonist activity at TLR4 in human THP1 cells assessed as reduction in LPS-induced JNK phosphorylation at 50 uM after 15 to 30 mins by Western blot analysis; format: cell-based
Toll-like receptor 4 [7] = biological target: T1, Toll-like receptor 4; assay: Binding affinity to recombinant human TLR4 assessed as dissociation rate constant up to 200 uM by surface plasmon resonance analysis
Toll-like receptor 4 [8] = biological target: T1, Toll-like receptor 4; assay: Binding affinity to recombinant human TLR4 by surface plasmon resonance analysis
Toll-like receptor 4 [9] = biological target: T1, Toll-like receptor 4; assay: Antagonist activity at TLR4 (unknown origin) assessed as inhibition of proinflammatory cytokines
Toll-like receptor 4 [10] = biological target: T1, Toll-like receptor 4; assay: Antagonist activity at TLR4 in human THP1 cells assessed as reduction in LPS-induced ATF3 activation at 50 uM after 120 to 240 mins by Western blot analysis; format: cell-based
Toll-like receptor 4 [11] = biological target: T1, Toll-like receptor 4; assay: Antagonist activity at TLR4 (unknown origin)
Toll-like receptor 4 [12] = biological target: T1, Toll-like receptor 4; assay: Antagonist activity at TLR4 in human THP1 cells assessed as reduction in LPS-induced IkappaBalpha degradation at 50 uM after 15 to 30 mins by Western blot analysis; format: cell-based
Rattus norvegicus [13] = assay: Antiarthritic activity in Lewis rat model of complete Freund's adjuvant-induced arthritis assessed as regain of normal feet physiology at 1 nmol/g administered intra-articularly into knee joint after 5 to 6 weeks by visual analysis; format: functional, organism-based
Toll-like receptor 4 [14] = biological target: T1, Toll-like receptor 4; assay: Antagonist activity at TLR4 in human PBMC cells assessed as reduction in LPS-induced JNK phosphorylation at 80 uM after 15 to 30 mins by Western blot analysis; format: cell-based
Toll-like receptor 4 [15] = biological target: T1, Toll-like receptor 4; assay: Antagonist activity at TLR4 in human PBMC cells assessed as reduction in LPS-induced IkappaBalpha degradation at 80 uM after 15 to 30 mins by Western blot analysis; format: cell-based
[16] = biological target: T3, Toll-like receptor 9 (Mus musculus) (UniProt Q9EQU3); assay: Antagonist activity at TLR9 in mouse RAW264.7 cells assessed as reduction in CpG ODN-induced TNFalpha secretion at 20 to 80 uM after 24 hrs by ELISA; format: cell-based
T3 sequence (whole entry): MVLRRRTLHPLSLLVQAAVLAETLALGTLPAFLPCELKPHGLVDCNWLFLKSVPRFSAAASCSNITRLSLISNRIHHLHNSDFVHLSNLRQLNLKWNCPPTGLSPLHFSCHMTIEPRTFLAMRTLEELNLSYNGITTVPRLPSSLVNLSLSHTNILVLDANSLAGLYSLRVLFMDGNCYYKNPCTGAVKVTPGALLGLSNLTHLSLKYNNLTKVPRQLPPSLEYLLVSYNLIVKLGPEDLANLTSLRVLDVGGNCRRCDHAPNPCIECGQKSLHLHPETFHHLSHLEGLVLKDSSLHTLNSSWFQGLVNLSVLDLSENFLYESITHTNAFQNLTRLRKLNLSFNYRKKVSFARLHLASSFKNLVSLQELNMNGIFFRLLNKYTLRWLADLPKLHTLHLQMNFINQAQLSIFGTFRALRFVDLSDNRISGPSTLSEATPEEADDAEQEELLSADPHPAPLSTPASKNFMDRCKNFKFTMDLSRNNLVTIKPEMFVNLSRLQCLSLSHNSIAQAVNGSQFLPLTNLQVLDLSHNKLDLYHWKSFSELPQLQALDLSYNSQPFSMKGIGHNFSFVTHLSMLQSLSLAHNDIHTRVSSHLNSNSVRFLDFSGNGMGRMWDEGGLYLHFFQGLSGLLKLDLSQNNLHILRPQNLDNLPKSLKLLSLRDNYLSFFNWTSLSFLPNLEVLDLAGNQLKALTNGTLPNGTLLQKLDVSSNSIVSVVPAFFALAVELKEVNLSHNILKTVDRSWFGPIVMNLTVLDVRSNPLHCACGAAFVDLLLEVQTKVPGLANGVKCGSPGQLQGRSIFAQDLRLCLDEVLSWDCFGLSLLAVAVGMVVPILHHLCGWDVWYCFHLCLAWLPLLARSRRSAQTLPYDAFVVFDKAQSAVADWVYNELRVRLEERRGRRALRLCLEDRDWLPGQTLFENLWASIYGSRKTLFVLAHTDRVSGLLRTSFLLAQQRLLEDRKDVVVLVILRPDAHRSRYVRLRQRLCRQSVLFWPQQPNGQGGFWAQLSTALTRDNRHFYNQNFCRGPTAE

[17] = biological target: T2, Toll-like receptor 4 (Mus musculus); assay: Antagonist activity at TLR4 in mouse RAW264.7 cells assessed as reduction in LPS-induced IFNbeta secretion after 24 hrs by ELISA; format: cell-based

T1 sequence (O00206 whole entry): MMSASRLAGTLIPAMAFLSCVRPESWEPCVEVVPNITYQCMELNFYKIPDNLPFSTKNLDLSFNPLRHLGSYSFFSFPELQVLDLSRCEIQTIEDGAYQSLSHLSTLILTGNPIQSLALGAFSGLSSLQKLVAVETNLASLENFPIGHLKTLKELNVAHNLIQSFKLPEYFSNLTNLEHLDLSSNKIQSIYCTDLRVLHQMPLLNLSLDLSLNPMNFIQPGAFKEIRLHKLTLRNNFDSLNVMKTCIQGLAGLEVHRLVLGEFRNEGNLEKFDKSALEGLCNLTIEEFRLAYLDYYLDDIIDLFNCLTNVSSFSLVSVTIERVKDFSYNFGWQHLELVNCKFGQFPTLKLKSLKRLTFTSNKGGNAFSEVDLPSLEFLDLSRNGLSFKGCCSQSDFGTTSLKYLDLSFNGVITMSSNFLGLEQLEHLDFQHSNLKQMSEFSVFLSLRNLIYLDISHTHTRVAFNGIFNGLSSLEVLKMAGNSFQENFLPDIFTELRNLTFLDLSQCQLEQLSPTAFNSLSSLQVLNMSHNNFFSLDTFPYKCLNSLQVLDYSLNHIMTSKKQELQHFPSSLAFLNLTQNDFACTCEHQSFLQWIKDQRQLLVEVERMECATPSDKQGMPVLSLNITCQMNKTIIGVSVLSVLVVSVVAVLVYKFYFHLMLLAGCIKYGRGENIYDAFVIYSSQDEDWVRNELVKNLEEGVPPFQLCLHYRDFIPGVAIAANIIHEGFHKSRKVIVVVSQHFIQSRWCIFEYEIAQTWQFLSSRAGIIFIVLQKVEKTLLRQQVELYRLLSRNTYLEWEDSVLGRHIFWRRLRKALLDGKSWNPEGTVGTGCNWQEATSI

Activity (Toll-like receptor 4 [1]) | Activity [3] | Activity [4] | Activity (Toll-like receptor 4 [5]) | Activity (Toll-like receptor 4 [6]) | koff (Toll-like receptor 4 [7]) | Activity (Toll-like receptor 4 [8]) | IC50 (Toll-like receptor 4 [9]) | Activity (Toll-like receptor 4 [10]) | IC50 (Toll-like receptor 4 [11]) | Activity (Toll-like receptor 4 [12]) | Activity (Toll-like receptor 4 [14]) | Activity (Toll-like receptor 4 [15]) | Activity [16] | Activity [17] | Compound | Activity (Rattus norvegicus [2]) | Activity (Rattus norvegicus [13])
Active | Dose-dependent effect | Dose-dependent effect | Active | Active | 0.0014 s⁻¹ | Dose-dependent effect | 5 µM | Active | 25 µM | Active |  |  |  |  | CC[C@H](C)[C@@H]1NC(=O)[C@H](Cc2c[nH]c3ccccc23)NC(=O)[C@H](Cc2c[nH]c3ccccc23)NC(=O)[C@@H](NC(=O)[C@H](CO)NC(=O)[C@H](Cc2ccccc2)NC(=O)[C@@H](NC(=O)CNC(=O)[C@@H](N)CC(C)C)C(C)C)CC(=O)NCCCC[C@@H](C(=O)N[C@@H](CC(C)C)C(=O)N[C@H](C(=O)O)C(C)C)NC1=O (H-LGVFSDWWIKLV-OH; lactam 6-10) | Active | Active
Active | Dose-dependent effect | Dose-dependent effect |  |  | 0.0113 s⁻¹ | Dose-dependent effect | 20 µM |  | 40 µM |  | Active | Active | inactive | Dose-dependent effect | H-LGVFSSWWIKLV-OH |  | 
